In ChEMBL document CHEMBL5505992, “Novel membrane-targeting isoxanthohumol-amine conjugates for combating methicillin-resistant Staphylococcus aureus (MRSA) infections” (Eur J Med Chem, 2024):
Values after ≈ are worked out from the molar mass of the structure shown.

How the values were obtained:
Staphylococcus aureus [1] = test: Antibacterial activity against methicillin-resistant Staphylococcus aureus clinical isolate MRSA-22 measured after 16 to 18 hrs by CLSI method; type: functional; conditions: time 16-18 hrs
Escherichia coli = test: Antibacterial activity against Escherichia coli ATCC25922 measured after 16 to 18 hrs by CLSI method; type: functional; conditions: time 16-18 hrs
Staphylococcus aureus [2] = test: Antibacterial activity against methicillin-resistant Staphylococcus aureus clinical isolate MRSA-21 measured after 16 to 18 hrs by CLSI method; type: functional; conditions: time 16-18 hrs
[3] = Hemolytic activity in sheep erythrocytes incubated for 1 hr by absorbance based analysis; type: toxicity, cell-based, Ovis aries, Erythrocyte
[4] = Selectivity index, ratio of HC50 for hemolytic activity in sheep erythrocytes to MIC for antibacterial activity against Staphylococcus aureus ATCC 29213; type: toxicity, cell-based; conditions: read-out: Selectivity Index
Staphylococcus aureus [5] = test: Antibacterial activity against Staphylococcus aureus ATCC 29213 measured after 16 to 18 hrs by CLSI method; type: functional; conditions: time 16-18 hrs
Staphylococcus aureus [6] = test: Antibacterial activity against methicillin-resistant Staphylococcus aureus clinical isolate MRSA-11 measured after 16 to 18 hrs by CLSI method; type: functional; conditions: time 16-18 hrs
Staphylococcus aureus [7] = test: Antibacterial activity against methicillin-resistant Staphylococcus aureus clinical isolate MRSA-13 measured after 16 to 18 hrs by CLSI method; type: functional; conditions: time 16-18 hrs
Staphylococcus aureus [8] = test: Antibacterial activity against methicillin-resistant Staphylococcus aureus clinical isolate MRSA-23 measured after 16 to 18 hrs by CLSI method; type: functional; conditions: time 16-18 hrs
Staphylococcus aureus [9] = test: Antibacterial activity against methicillin-resistant Staphylococcus aureus clinical isolate MRSA-17 measured after 16 to 18 hrs by CLSI method; type: functional; conditions: time 16-18 hrs
Staphylococcus aureus [10] = test: Antibacterial activity against methicillin-resistant Staphylococcus aureus clinical isolate MRSA-20 measured after 16 to 18 hrs by CLSI method; type: functional; conditions: time 16-18 hrs
Staphylococcus aureus [11] = test: Antibacterial activity against methicillin-resistant Staphylococcus aureus clinical isolate MRSA-14 measured after 16 to 18 hrs by CLSI method; type: functional; conditions: time 16-18 hrs
Staphylococcus aureus [12] = test: Antibacterial activity against methicillin-resistant Staphylococcus aureus clinical isolate MRSA-18 measured after 16 to 18 hrs by CLSI method; type: functional; conditions: time 16-18 hrs
Staphylococcus aureus [13] = test: Antibacterial activity against methicillin-resistant Staphylococcus aureus clinical isolate MRSA-16 measured after 16 to 18 hrs by CLSI method; type: functional; conditions: time 16-18 hrs

Compound: CCCN(CCC)CCCCOc1ccc(C2CC(=O)c3c(OC)cc(OCCCCN(CCC)CCC)c(CC=C(C)C)c3O2)cc1 (configuration not stated)
- MIC (Staphylococcus aureus [1]): 16 µg/mL (≈ 24.1 µM)
- MIC (Escherichia coli): > 128 µg/mL
- MIC (Staphylococcus aureus [2]): 16 µg/mL (≈ 24.1 µM)
- HC50 at 1 h [3]: > 1280 µg/mL
- selectivity ratio [4]: > 80
- MIC (Staphylococcus aureus [5]): 16 µg/mL (≈ 24.1 µM)
- MIC (Staphylococcus aureus [6]): 16 µg/mL (≈ 24.1 µM)
- MIC (Staphylococcus aureus [7]): 16 µg/mL (≈ 24.1 µM)
- MIC (Staphylococcus aureus [8]): 16 µg/mL (≈ 24.1 µM)
- MIC (Staphylococcus aureus [9]): 16 µg/mL (≈ 24.1 µM)
- MIC (Staphylococcus aureus [10]): 16 µg/mL (≈ 24.1 µM)
- MIC (Staphylococcus aureus [11]): 16 µg/mL (≈ 24.1 µM)
- MIC (Staphylococcus aureus [12]): 32 µg/mL (≈ 48.1 µM)
- MIC (Staphylococcus aureus [13]): 16 µg/mL (≈ 24.1 µM)

Compound: CCCC[N+](C)(CCCC)CCCCOc1ccc(C2CC(=O)c3c(OC)cc(OCCCC[N+](C)(CCCC)CCCC)c(CC=C(C)C)c3O2)cc1.[I-].[I-] (configuration not stated)
- MIC (Staphylococcus aureus [1]): 1 µg/mL
- MIC (Escherichia coli): 32 µg/mL
- MIC (Staphylococcus aureus [2]): 0.5 µg/mL
- HC50 at 1 h [3]: > 1280 µg/mL
- selectivity ratio [4]: > 2640
- MIC (Staphylococcus aureus [5]): 0.5 µg/mL
- MIC (Staphylococcus aureus [6]): 0.5 µg/mL
- MIC (Staphylococcus aureus [7]): 0.5 µg/mL
- MIC (Staphylococcus aureus [8]): 0.5 µg/mL
- MIC (Staphylococcus aureus [9]): 0.25 µg/mL
- MIC (Staphylococcus aureus [10]): 0.5 µg/mL
- MIC (Staphylococcus aureus [11]): 0.5 µg/mL
- MIC (Staphylococcus aureus [12]): 0.5 µg/mL
- MIC (Staphylococcus aureus [13]): 0.25 µg/mL

Compound: COc1cc(OCCCCCN2CCC(C)CC2)c(CC=C(C)C)c2c1C(=O)CC(c1ccc(OCCCCCN3CCC(C)CC3)cc1)O2 (configuration not stated)
- MIC (Staphylococcus aureus [1]): 8 µg/mL (≈ 11.6 µM)
- MIC (Escherichia coli): > 128 µg/mL
- MIC (Staphylococcus aureus [2]): 4 µg/mL (≈ 5.81 µM)
- HC50 at 1 h [3]: > 1280 µg/mL
- selectivity ratio [4]: > 160
- MIC (Staphylococcus aureus [5]): 8 µg/mL (≈ 11.6 µM)
- MIC (Staphylococcus aureus [6]): 4 µg/mL (≈ 5.81 µM)
- MIC (Staphylococcus aureus [7]): 8 µg/mL (≈ 11.6 µM)
- MIC (Staphylococcus aureus [8]): 8 µg/mL (≈ 11.6 µM)
- MIC (Staphylococcus aureus [9]): 8 µg/mL (≈ 11.6 µM)
- MIC (Staphylococcus aureus [10]): 8 µg/mL (≈ 11.6 µM)
- MIC (Staphylococcus aureus [11]): 8 µg/mL (≈ 11.6 µM)
- MIC (Staphylococcus aureus [12]): 8 µg/mL (≈ 11.6 µM)
- MIC (Staphylococcus aureus [13]): 4 µg/mL (≈ 5.81 µM)

Compound: COc1cc(OCCCCN2CCOCC2)c(CC=C(C)C)c2c1C(=O)CC(c1ccc(OCCCCN3CCOCC3)cc1)O2 (configuration not stated)
- MIC (Staphylococcus aureus [1]): 32 µg/mL (≈ 50.2 µM)
- MIC (Escherichia coli): > 128 µg/mL
- MIC (Staphylococcus aureus [2]): 64 µg/mL (≈ 100 µM)
- HC50 at 1 h [3]: > 640 µg/mL
- selectivity ratio [4]: > 20
- MIC (Staphylococcus aureus [5]): 32 µg/mL (≈ 50.2 µM)
- MIC (Staphylococcus aureus [6]): 64 µg/mL (≈ 100 µM)
- MIC (Staphylococcus aureus [7]): 64 µg/mL (≈ 100 µM)
- MIC (Staphylococcus aureus [8]): 32 µg/mL (≈ 50.2 µM)
- MIC (Staphylococcus aureus [9]): 32 µg/mL (≈ 50.2 µM)
- MIC (Staphylococcus aureus [10]): 32 µg/mL (≈ 50.2 µM)
- MIC (Staphylococcus aureus [11]): 64 µg/mL (≈ 100 µM)
- MIC (Staphylococcus aureus [12]): 32 µg/mL (≈ 50.2 µM)
- MIC (Staphylococcus aureus [13]): > 128 µg/mL

Compound: COc1cc(OCCCCN2CCSCC2)c(CC=C(C)C)c2c1C(=O)CC(c1ccc(OCCCCN3CCSCC3)cc1)O2 (configuration not stated)
- MIC (Staphylococcus aureus [1]): > 128 µg/mL
- MIC (Escherichia coli): > 128 µg/mL
- MIC (Staphylococcus aureus [2]): > 128 µg/mL
- HC50 at 1 h [3]: > 640 µg/mL
- selectivity ratio [4]: > 10
- MIC (Staphylococcus aureus [5]): 64 µg/mL (≈ 95.7 µM)
- MIC (Staphylococcus aureus [6]): > 128 µg/mL
- MIC (Staphylococcus aureus [7]): > 128 µg/mL
- MIC (Staphylococcus aureus [8]): > 128 µg/mL
- MIC (Staphylococcus aureus [9]): > 128 µg/mL
- MIC (Staphylococcus aureus [10]): > 128 µg/mL
- MIC (Staphylococcus aureus [11]): > 128 µg/mL
- MIC (Staphylococcus aureus [12]): > 128 µg/mL
- MIC (Staphylococcus aureus [13]): > 128 µg/mL

Compound: CCCCN(CCCC)CCCCCOc1ccc(C2CC(=O)c3c(OC)cc(OCCCCCN(CCCC)CCCC)c(CC=C(C)C)c3O2)cc1 (configuration not stated)
- MIC (Staphylococcus aureus [1]): 8 µg/mL (≈ 10.7 µM)
- MIC (Escherichia coli): > 128 µg/mL
- MIC (Staphylococcus aureus [2]): 8 µg/mL (≈ 10.7 µM)
- HC50 at 1 h [3]: 980 µg/mL
- selectivity ratio [4]: 245
- MIC (Staphylococcus aureus [5]): 4 µg/mL (≈ 5.34 µM)
- MIC (Staphylococcus aureus [6]): 8 µg/mL (≈ 10.7 µM)
- MIC (Staphylococcus aureus [7]): 4 µg/mL (≈ 5.34 µM)
- MIC (Staphylococcus aureus [8]): 8 µg/mL (≈ 10.7 µM)
- MIC (Staphylococcus aureus [9]): 4 µg/mL (≈ 5.34 µM)
- MIC (Staphylococcus aureus [10]): 4 µg/mL (≈ 5.34 µM)
- MIC (Staphylococcus aureus [11]): 4 µg/mL (≈ 5.34 µM)
- MIC (Staphylococcus aureus [12]): 8 µg/mL (≈ 10.7 µM)
- MIC (Staphylococcus aureus [13]): 4 µg/mL (≈ 5.34 µM)

Compound: CCCN(CCC)CCCCCOc1ccc(C2CC(=O)c3c(OC)cc(OCCCCCN(CCC)CCC)c(CC=C(C)C)c3O2)cc1 (configuration not stated)
- MIC (Staphylococcus aureus [1]): 8 µg/mL (≈ 11.5 µM)
- MIC (Escherichia coli): > 128 µg/mL
- MIC (Staphylococcus aureus [2]): 8 µg/mL (≈ 11.5 µM)
- HC50 at 1 h [3]: 331 µg/mL
- selectivity ratio [4]: 41.4
- MIC (Staphylococcus aureus [5]): 8 µg/mL (≈ 11.5 µM)
- MIC (Staphylococcus aureus [6]): 8 µg/mL (≈ 11.5 µM)
- MIC (Staphylococcus aureus [7]): 8 µg/mL (≈ 11.5 µM)
- MIC (Staphylococcus aureus [8]): 16 µg/mL (≈ 23.1 µM)
- MIC (Staphylococcus aureus [9]): 8 µg/mL (≈ 11.5 µM)
- MIC (Staphylococcus aureus [10]): 8 µg/mL (≈ 11.5 µM)
- MIC (Staphylococcus aureus [11]): 8 µg/mL (≈ 11.5 µM)
- MIC (Staphylococcus aureus [12]): 16 µg/mL (≈ 23.1 µM)
- MIC (Staphylococcus aureus [13]): 8 µg/mL (≈ 11.5 µM)

Compound: COc1cc(OCCCN2CCCCC2C)c(CC=C(C)C)c2c1C(=O)CC(c1ccc(OCCCN3CCCCC3C)cc1)O2 (configuration not stated)
- MIC (Staphylococcus aureus [1]): 16 µg/mL (≈ 25.3 µM)
- MIC (Escherichia coli): > 128 µg/mL
- MIC (Staphylococcus aureus [2]): 32 µg/mL (≈ 50.6 µM)
- HC50 at 1 h [3]: > 1280 µg/mL
- selectivity ratio [4]: > 40
- MIC (Staphylococcus aureus [5]): 32 µg/mL (≈ 50.6 µM)
- MIC (Staphylococcus aureus [6]): 32 µg/mL (≈ 50.6 µM)
- MIC (Staphylococcus aureus [7]): 32 µg/mL (≈ 50.6 µM)
- MIC (Staphylococcus aureus [8]): 32 µg/mL (≈ 50.6 µM)
- MIC (Staphylococcus aureus [9]): 32 µg/mL (≈ 50.6 µM)
- MIC (Staphylococcus aureus [10]): 32 µg/mL (≈ 50.6 µM)
- MIC (Staphylococcus aureus [11]): 32 µg/mL (≈ 50.6 µM)
- MIC (Staphylococcus aureus [12]): 32 µg/mL (≈ 50.6 µM)
- MIC (Staphylococcus aureus [13]): 16 µg/mL (≈ 25.3 µM)
